Values of other authors in patent publication US5776505A (Bayer Aktiengesellschaft, priority 1995, dated 1998).

Settings: cross-over study; with magnesium hydroxide

SMILES: CC(C)Cc1ccc(C(C)C(=O)O)cc1 (stereo not shown) [ibuprofen]
- plasma concentration as a result of addition of magnesium hydroxide: higher plasma concentration
